“And” between values parts separate entries of the source, which are not always exact repeats. Equal values may be shown once. Read-outs that look alike come from different tables or passages of the source.
What was measured:
[1] = biological target: T1, ENL-AF4 interaction (Homo sapiens, UniProt Q03111); assay: Alpha assay, ENL-AF4 interaction; format: binding; settings: read-out: IC50, inhibition of ENL-AF4 interaction
T1 construct: ENL AHD domain (489-559) was synthesized (by Genscript) and inserted into the pMAL c5X expression plasmid; made in house; host or cells: E. coli BL21(DE3)
T1 sequence (Q03111 489-559): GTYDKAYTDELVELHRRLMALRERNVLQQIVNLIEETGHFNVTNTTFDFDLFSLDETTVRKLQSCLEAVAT
Method: (§1) ENL is also a major MLL fusion partner (~10%). The AHD domains of human ENL and AF9 share a high homology with 82% identity and 89% similarity (Figure S1A). […] Our attempts to develop an Alpha assay for ENL-DOT1L failed. […] Compound 1's activity against ENL-DOT1L was therefore not determined.
(§2) Alpha assays. Alpha assays were developed using Perkin-Elmer AlphaLisa anti-MBP kit, which contains streptavidin donor beads and anti-MBP acceptor beads. The assay was performed using a MBP-protein (5 nM), a biotinylated peptide (40 nM), and increasing concentrations of a compound in 25 µL buffer (PBS with 0.5 % BSA, pH 7.5) in 384-well plates according to the manufacturer's protocol and measured with a Tecan SPARK microplate reader. Data were imported into Prism (version 5.0), and IC50 values from 3 independent experiments with standard deviation were obtained by using a standard dose-response curve fitting.

[2] = tested on: MV4;11 leukemia xenograft; assay: Subcutaneous MV4;11 xenograft antitumor study; format: in vivo, NOD-SCID mice; settings: 15 mg/kg/day i.p. for 10 days; two cohorts (N = 6 and 8; p < 0.01 and 0.05)
Method: In vivo antitumor activity of compound 1 was evaluated in a commonly used mouse model of MLL-r leukemia, [26]. 10^7 MV4;11 cells in 0.1 mL of saline and Matrigel (1:1) were injected subcutaneously into NOD-SCID mice, which can develop palpable tumors in ~2 weeks.
In vivo antitumor studies. All of the mouse studies were conducted in strict compliance with an IRB-approved protocol. NOD-SCID mice (4 to 6 weeks old, from Jackson lab) were obtained and maintained under specific pathogen-free conditions. 10^7 MV4;11 cells in medical grade saline and Matrigel (1:1, 0.1 mL) were inoculated subcutaneously and palpable tumors (2-3 mm in diameter) were developed in ~ 2 weeks. Mice were treated with compound 1 (15 mg/kg/day for 10 days) in saline (0.1 mL) administered intraperitoneally. Tumors were measured every 2 days and estimated by using the formula a×b^2/2.

[3] = tested on: cancer cells; assay: Antiproliferation assays, cancer cell panel; format: cell-based
Method: The differential antiproliferation activities of compound 1 is consistent with its ability to suppress DOT1L/H3K79 methylation and SEC regulated gene expression, which are critical to MLL-r leukemia and Myc-driven blood cancer, but largely dispensable to other solid tumor cells.
Antiproliferation assay. Proliferation inhibition assays for suspension blood cancer cells were performed using an XTT assay kit (Roche). Proliferation inhibition assays for solid tumor cell lines MCF-7, MDA-MB-231, Panc1, Panc28 were performed using an MTT assay (Sigma). The antiproliferation EC50 values were determined using Prism 5 and the reported results were the mean values of at least three independent experiments. The incubation time for compound 1 was 7 days and that for EPZ4777 was 14 days.

[4] = tested on: nuclear protein levels in MV4;11 cells; assay: Western blot of nuclear proteins; format: cell-based
Method: Western blot. 3x10^6 cells/well were treated with increasing concentrations of a compound for 3 days and nuclear proteins extracted with the EpiQuik Nuclear Extraction Kit (Epigentek) according to the manufacturer's protocol. Equal amounts of proteins were separated on SDS-PAGE and transferred to PVDF membranes. The blots were probed with primary antibodies, followed by anti-rabbit or anti-mouse IgG (Thermo Scientific) secondary antibodies. The primary antibodies used in this research were MBP Mouse mAb (#2396, Cell signaling), DOT1L Rabbit mAb (#77087, Cell signaling), MLL-N Rabbit mAb (#14689, Cell signaling), ENL Rabbit mAb (#14893, Cell signaling), Di-Methyl-Histone H3K79 Rabbit mAb (#5427, Cell signaling), Mono-Methyl-Histone H3K79 Rabbit mAb (#9398, Cell signaling), Histone H3 Rabbit mAb (#4499, Cell signaling), AF4 Rabbit pAb (#NBP1-28705, Novusbio) and AFF4 Rabbit pAb (#ab103586, Abcam).

[5] = biological target: T2, AF9-DOT1L interaction (Homo sapiens, UniProt P42568); assay: Alpha assay, AF9 AHD-DOT1L peptide interaction; format: binding; settings: read-out: IC50, inhibition of AF9-DOT1L interaction
T2 construct: cDNA for human AF9 AHD domain (475-568) and ENL AHD domain (489-559) was synthesized; made in house; host or cells: E. coli BL21(DE3)
T2 sequence (P42568 475-568): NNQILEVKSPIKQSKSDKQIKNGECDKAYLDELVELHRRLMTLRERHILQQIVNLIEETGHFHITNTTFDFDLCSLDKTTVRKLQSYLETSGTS
Text: (§3) We developed an Alpha (amplified luminescent proximity homogeneous assay) assay to determine the binding and inhibition of the PPI between maltose-binding protein (MBP)-tagged AF9 AHD and a biotin-labeled DOT1L peptide, using AlphaLisa streptavidin donor beads and anti-MBP acceptor beads. Laser excitation to the donor beads generates singlet oxygen radicals, which can travel for <200 nm in solution and cannot reach the free acceptor beads. The PPI brings the DOT1L coated donor beads and AHD coated acceptor beads together, allowing the radicals to activate the acceptor beads and produce luminescence. […] We also developed a fluorescence polarization (FP) assay. A fluorescein-labeled DOT1L peptide has a higher freedom in solution with a lower polarization value.
as §2

[6] = biological target: T3, AF9-AF4 interaction (Homo sapiens, UniProt P42568); assay: Alpha assay, AF9-AF4 interaction; format: binding; settings: read-out: IC50, inhibition of AF9-AF4 interaction
T3 construct: cDNA for human AF9 AHD domain (475-568) and ENL AHD domain (489-559) was synthesized; made in house; host or cells: E. coli BL21(DE3)
Method: as §1, §2

[7] = biological target: T2, AF9-DOT1L interaction; assay: Fluorescence polarization (FP) inhibition assay, AF9-DOT1L; format: binding
Text: as §3
Fluorescence polarization assay. It was performed in 96-well black microplates with each well containing a Fluorescein-labeled peptide (2 nM) and increasing concentration of a AF9/ENL protein in a buffer (20 mM HEPES, pH 7.5, 0.01% Triton X-100, 100 µL) for Kd determination. For IC50 determination, a Fluorescein-labeled peptide (2 nM), AF9/ENL protein (100 nM) and increasing concentration of a compound in the same buffer were placed in each well. Upon incubation of 1h, the FP value of each well was determined using a Tecan SPARK microplate reader. Data were similarly processed to obtain Kd or IC50 values.

## CC(C)(C)c1ccc(-n2cc(C(=O)NC3CCNCC3)nc2-c2ccccc2)cc1 [Compound 1]
[1]
  IC50: 0.9 µM and 0.94 µM
[2]
  Tumor growth: significantly inhibited tumor growth
[3]; 168 h, MLL-r leukemia (MV4;11, Molm-13, THP-1) and Myc-driven blood cancer cells, 7 days, read-out: EC50 against proliferation (range)
  EC50: 3 to 11 µM
[3]; MCF-7, MDA-MB-231 and two pancreatic cancer cells
  Antiproliferative activity against solid tumor cells: reduced activity
[3]; MLL-r leukemia cells Molm-13, MV4;11 and THP-1, read-out: EC50s against proliferation (range)
  EC50: 4.7 to 11 µM
[3]; Myc-driven blood cancer cells HL60, Kasumi-1, Jurkat, RPMI8226, U266, read-out: EC50s against proliferation (range)
  EC50: 3.3 to 9.7 µM
[4]; 10 μM
  Nuclear level of AFF4: did not cause significantly decreased AFF4
[4]; 3 days
  Nuclear protein levels of H3K79me1 and me2 and ENL: reduced the nuclear protein levels of H3K79me1 and me2 and ENL
[5]
  IC50: 3.5 µM
[6]
  IC50: 1.5 ± 0.2 µM
[7]
  IC50: 3.2 µM

Source: PMC8344022, “Small-molecule inhibitor of AF9/ENL-DOT1L/AF4/AFF4 interactions suppresses malignant gene expression and tumor growth” (Theranostics, 2021)
